The subject of data set [1] is spontaneous motor activity. The settings on record: mice; relative to maltol; cited from earlier work.
The nature of data set [2]: Volatility and storage stability. Type of data set: physicochemical. As to the method:
The troches were made essentially by conventional candy making techniques. The polysaccharide and starch were first dry blended to substantial uniformity. About 3-4% by weight of water was added to the dry powder to form a thick paste. This paste was then heated to produce a uniform viscous melt. Maltol or ethyl maltol were added to this melt as saturated solutions in boiling water. The water solubility of the gamma pyrones is somewhat limited. For example, one gram of ethyl maltol requires 6 ml of water at 100° C. to dissolve completely. Since the water content of the mixture must be kept low, the amount of ethyl maltol which can be incorporated is about 3-4%, and preferably about 1% by weight of the troche. […] Alternatively, the entire process can be carried out in a suitable pressure apparatus.
A refined, bland chewing gum base, obtained from Adams Sour Apple gum, (Warner-Lambert, Inc., Morris Plains, N.J.) was heated to 45° C. in a 100 gram batch. Ethyl maltol, 300 to 400 mesh, 6.66 grams, was added to the chewing gum base with thorough mixing to provide an even distribution of particles throughout the mass. The mass was then rolled into individual 3 gram sticks and allowed to cool. Alternatively, the mass was rolled as a single thin rectangular slab, allowed to cool, then cut into 3 gram sticks. […] Each 3 gram stick contains 200 mg of ethyl maltol.

Data set [3] concerns tobacco consumption of habitual smokers. Nature of the data set: General observations of treatment on tobacco consumption and subjective effects. Type of data set: in vivo, human (test subjects. The text has this:
In a preferred embodiment, finely divided ethyl maltol is distributed in a chewing gum base, which when chewed by the subject, results in a gradual release of ethyl maltol into the oral cavity. When administered in appropriate amounts over a period of several days, there results a gradual decrease in the number of cigarettes smoked and the length of time they are smoked. […] Reductions in the frequency and quantity of smoking have been observed in test subjects who were unaware that their smoking behavior was monitored. […] Subjectively, test subjects experience a reduced desired to smoke, tend to neglect the opportunities to light up a cigarette and tend to leave cigarettes unsmoked in the ashtray after a few puffs. The effect is sufficiently subtle that a smoker is sometimes unaware that their tobacco consumption rate was decreased until such point as the lowered consumption rate becomes obvious. For smokers sincerely desiring to reduce or eliminate their smoking, the effect of the treatment is most gratifying. However, for smokers who are not psychologically committed to giving up smoking, the effects may be alarming. It is of course, possible to override the effects of the treatment by conscious effort to smoke at the pre-treatment rate.
Smoking behavior is complex and includes cigarette, pipe and cigar smoking. Both from the standpoint of habituation and of health hazard, cigarette smoking is considered to be the most serious. It is contemplated that the treatment method described herein will be effective to inhibit all forms of smoking behavior and combinations thereof, involving the consumption of tobacco. For convenience, the ensuing discussion focuses on cigarette smoking, as exemplary of smoking behavior in general. Tobacco consumption is a function the number of cigarettes smoked and the proportion of each cigarette smoked. Reduction of consumption is measured by comparison with a smoker's pretreatment consumption rate. All data used herein are expressed as percent reduction, i.e., the differential between pretreatment and current smoking consumption rate divided by the pretreatment rate, times 100. All rates are calculated to take into account both the number of cigarettes smoked and the proportion of each smoked.
Duration of treatment may be as little as ten days, preferably 20 to 30 days. As might be expected with a complex behavior such as smoking, where psychological and social factors play a major role in addition to individual variations in nicotine susceptibility and responsiveness to gamma pyrone, the rate of smoking reduction during treatment is highly variable. Typically, a gradual reduction to about 50% to the pretreatment rate is observed over the first four to six days. Frequently, little or no reduction is observed for the first two days, although occasionally a dramatic reduction is observed almost immediately. In the ensuing seven to ten days, further reductions, typically 70 to 100%, are observed. Reduction below the 50% level in the first 3-5 days is sometimes accompanied by the physiological (but not psychological) symptoms of nicotine withdrawl, such as vertigo, alimentary distress, diuresis, scotoma and disorientation. Such symptoms have never been observed in non-smoking control subjects using the same gamma pyrone dosages. […] The entire course of treatment is therefore extended somewhat, preferably to about 20 to 30 days total. […]

A further data set has as its system non-smoker volunteers. As to the kind of experiment: Non-smoker control volunteers on same regimen. The settings on record: five non-smokers; in excess of 500 mg per day for several days. Type of data set: in vivo, human (non-smokers). As to the method:
As a control, five non-smoker volunteers were tested according to the same regimen, receiving varying quantities of ethyl maltol in excess of 500 mg. per day for periods of several days.

For data set [4] the following is noted: cited from earlier work.
Data set [5] relates to convulsions produced by pentylenetetrazole or strychnine. The settings on record: 300 to 500 mg per kg; cited from earlier work.
Another data set deals with rat brain cortex slices. The settings on record: in vitro; cited from earlier work.
The nature of data set [6]: Dissolution in the mouth of gamma pyrone particles dispersed in chewing gum. Type of data set: physicochemical. The settings on record: particles 300 to 400 mesh. As to the method: The formation of a chewing gum for administering a gamma pyrone according to the invention is next described. Crystaline ethyl maltol was ground and sieved to 300 mesh. The ground particles acquired a static charge, tending to float upwards. In practice, it was possible to sieve the particles upwards, collecting only those which passed through the 300 mesh screen.
The ground particles were mixed at 45° C. with a plastic chewing gum base, until evenly distributed throughout the mass. The chewing gum base was selected to be free of amino acids, tannins and other flavoring elements capable of combining with gamma pyrone to yield bitter off flavors. The rate of release of gamma pyrone into the oral cavity is a function of the rate of solution of the gamma pyrone as the gum is chewed. The rate of solution is controlled by the size of the gamma pyrone particles dispersed in the gum. Optimally, for ethyl maltol, particles in the size range from 300 to 400 mesh when dispersed in such a matrix, are dissolved in the mouth in about 30 minutes. The gamma pyrone must be dispersed throughout the gum in particulate form to provide the desired sustained release effect, particles […] than 300-400 mesh dissolved more slowly, so that the incremental dose was delivered more slowly. […] particles dissolved more rapidly than desired so that the dose was delivered in an undesirably short time. […]

The conditions of data set [7]: per day; cited from earlier work.

Regarding `CCc1occc(=O)c1O` [ethyl maltol, 3-hydroxy-2-ethyl-4-pyrone], the “spontaneous motor activity (in words)” value in [1] was “also inhibitory, but somewhat less potent”. For the same compound, in data set [2] (especially at elevated temperatures), the volatility result is reported as “volatile, especially at elevated temperatures”. For the same compound, in data set [2] (unwrapped gum, room temperature), the storage loss result is listed as “storage loss of ethyl maltol due to sublimation at room temperature”. In data set [3] (appropriate dosage levels and rates), the “tobacco consumption of habitual smokers” value is “significantly reduces the tobacco consumption of habitual smokers”. Moreover, the “onset of reduced cigarette consumption” value in data set [3] (day of treatment) is recorded as “about the second or third day of treatment”. The “symptoms of nicotine withdrawal” value in [3] (treatment over several days) is reported as “does not appear to be accompanied by the typical symptoms of nicotine withdrawal”. Besides, the “psychological or physiological effects” value in the data set on non-smoker volunteers is given as “no psychological or physiological effects”. Besides, in [4] (after oral administration), the absorption entry is given as “rapidly absorbed”; the excretion result is reported as “rapidly excreted”; the form of excretion entry is “primarily as glucuronide and ethereal sulfate conjugates”. For the same compound, the metabolism and excretion entry in data set [4] (in vivo) is “rapidly metabolized and excreted”. Besides, the “convulsions produced by pentylenetetrazole or strychnine” value in data set [5] is on record as “inhibited convulsions”. For the same compound, in the data set on rat brain cortex slices, the “oxygen intake by rat brain cortex slices” value is “not affected”. Moreover, the “dissolution time in the mouth from gum” value in [6] is given as “about 30 minutes”. Besides, the “safe average daily intake” value in data set [7] is on record as 2 mg per kg.

The record behind these values is patent publication US4276890A, “Tobacco smoking inhibitor” (priority 1979, dated 1981).
